From US9540646B2, “Cellular targets for HIV infection” (priority 2012, dated 2017)
Entries after “also recorded” stand apart in the source; their conditions may differ. Read-outs that look alike come from different tables or passages of the source.

Key:
[1] = molecular target: T1, Panx1 hemichannels (Homo sapiens, UniProt Q96RD7); assay: Etd uptake in CD4+ T lymphocytes induced by chemokines or gp120; type: cell-based; parameters: endogenous in cells; host or cells: primary human PBMCs and purified CD4+ T lymphocytes from leukopacks (New York Blood Center); details: gp120 1 μg/ml
Protocol: (§1) Dye uptake and time lapse fluorescence imaging. To characterize the functional state of Panx1 hemichannels, dye uptake experiments using ethidium (Etd) bromide were performed as previously described (18, 19). Cells were washed twice in Hank's balanced salt solution and then exposed to Locke's solution (containing: 154 mM NaCl, 5.4 mM KCl, 2.3 mM CaCl2, 5 mM HEPES and pH 7.4) with 5 μM Etd and time lapse microscopy was performed. Phase-contrast and fluorescence microscopy with time-lapse imaging were used to record cell appearance and fluorescence intensity changes in each condition. Fluorescence was recorded every 30 s. The NIH ImageJ program was used for off-line image analysis and fluorescence quantification. For data representation and calculation of Etd uptake slopes, the average of two independent background fluorescence intensity measurements (FB, expressed as arbitrary units, AU) was subtracted from fluorescence intensity′ in each cell (F1). Results of this calculation (F1-FB), for at least 20 cells, were averaged and plotted against time (expressed in minutes). Slopes were calculated using Microsoft Excel software and expressed as AU/min. Microscope and camera settings remained the same in all experiments. Dead cells were clearly identified during the time lapse microscopy due to their non specific Etd uptake (not inhibited by hemichannel blockers) and were not quantified.

[2] = system: HIVADA; assay: HIV replication in primary human macrophages, HIV p24 ELISA; type: cell-based, Human immunodeficiency virus-1 (HIV); details: for inhibition at 100 µM: Human immunodeficiency virus 1, Macrophage
Excerpt: Monocyte isolation and macrophage culture: Human monocytes were isolated from leukopaks obtained from the New York Blood Center. Peripheral blood mononuclear cells (PBMCs) were isolated by differential centrifugation using a Ficoll gradient (GE Healthcare, Piscataway, N.J.) and CD14 positive cells were isolated from PBMCs using CD14 monoclonal antibodies that were then bound by magnetic nanoparticles and separated using a magnetic field (Stem Cell Technologies, Vancouver, BC, Canada). Isolated CD14 positive cells were cultured adherently for 6 days in the presence of 10 ng/ml macrophage-colony stimulating factor (PeproTech, Rocky Hill, N.J.) in RPMI 1640 with 10% FBS, 5% human AB serum, 1% P/S, and 10 mM HEPES to differentiate the cells into macrophages.
(§2) HIV replication: After 6 days in culture, macrophages in 48-well plates at a density of 10^5 cells per well were inoculated with 2-20 ng/ml HIVADA, 2 ng/ml HIVYU-2, or 0.2 ng/ml HIVBaL for 24 hours in the presence or absence of purinergic receptor inhibitors. 5 wells were inoculated per condition. After 24 hours, cells were washed with PBS and then cultured with media. Supernatants were collected and medium was changed every 24 hours until 7 days post inoculation (d.p.i.). When the inhibitors oATP, A-740003, MRS 2179, NF 279, BBG, or suramin, were used, they were added when the medium was changed every 24 hours. Viral replication was analyzed by HIV p24 ELISA (Advanced Bioscience Laboratories, Kensington, Md.) according to the manufacturer's instructions

[3] = system: Macrophages; assay: Cell viability of macrophages, live/dead assay; type: cell-based; details: 100 μM, 24 hours
Excerpt: Cells were imaged using a Zeiss AxioObserver.D1 with an LD Plan-Neofluar 20×/0.4 air objective lens. Images were collected at room temperature through a Zeiss AxioCam MRm camera using Axiovision software.

[4] = system: β-lactamase containing HIVBaL; assay: HIV Entry Assay (β-lactamase / CCF2-AM) in primary human macrophages; type: cell-based, Human immunodeficiency virus-1 (HIV); details: for reduction in viral entry (percentage of cells with viral entry) relative to HIV only: 100 μM, 4 hours, MOI 0.001-0.01, oATP N=5, others N=3
Protocol: HIV Entry Assay: Primary human macrophages were cultured in black 96-well plates with a clear bottom (Corning Inc., Corning, N.Y.) at a density of 43,000 cells per well. After 7-8 days in culture, cells were inoculated with β-lactamase containing HIVBaL at a multiplicity of infection (MOI) of 0.01, 0.005, or 0.001 in the presence or absence of the purinergic receptor inhibitors oATP, NF 279, A-740003, or MRS 2179 for 4 hours. Beta-lactamase containing HIVBaL was generated as described previously (27). Briefly, HEK-293T cells were transfected using calcium phosphate with two plasmids, one containing the HIVBaL genome, pWT/BaL (NIH repository), the other containing β-lactamase fused to REV vpr, pMM310 (NIH repository). Cells were transfected for 16 hours and then supernatant was collected 24 and 48 hours following transfection. […] Viral stocks were generated by sucrose gradient purification of the transfection supernatants.
Alter viral inoculation of primary human macrophages, cells were washed with phenol red-free DMEM (Gibco) then loaded with CCF2-AM for 6 hours at room temperature using the GeneBLAzer In Vivo Detection Kit (Invitrogen, Carlsbad, Calif.). CCF2-AM fluoresces green due to an internal fluorescence resonance energy transfer, but when cleaved by β-lactamase, this interaction is lost and the molecule fluoresces blue. Cells were imaged using an Olympus IX70 with a Plan 10×/0.25 air objective lens. Images were collected at room temperature through an Olympus E-620LS camera attached to the microscope through an OM adapter MF-1. Images were collected directly onto a memory card and there was no image processing following image collection. Images were collected for 8 fields in 4 separate wells per condition and percentage of cells positive for viral entry was determined by counting the number of blue cells (cells that virus had entered) as compared to the total number of blue and green cells.

[5] = molecular target: T1, Panx1 hemichannels; assay: HIV-induced ethidium (Etd) dye uptake, time lapse fluorescence imaging, in PBMCs and CD4+ T lymphocytes; type: cell-based; parameters: endogenous in cells; host or cells: primary human PBMCs and purified CD4+ T lymphocytes from leukopacks (New York Blood Center); details: 5 min and 72 h; for Etd uptake (rate) induced by the virus: PBMCs exposed to HIVADA, CD4+ T lymphocytes exposed to HIVADA, HIVBal or HIVLAI, Prob 500 μM, 10Panx1 200 μM, scrPanx1 200 μM, La3+ 200 μM, Cx43E2 1:500, siRNA 10 nM
Protocol: Isolation of human PBMCs and CD4+ T lymphocytes. Anticoagulated blood was obtained from leukopacks obtained from the New York Blood Center as described before (16). PBMCs were isolated by under-layering with Ficoll-Paque (Amersham Bioscience, Uppsala, Sweden) according to the procedure described by the manufacturer. Purified PBMC used in these studies were ˜10% monocytes and ˜90% lymphocytes and other hematopoietic cells, as determined by incubation with premixed human CD45 and CD14 monoclonal antibodies conjugated to FITC and PE, respectively (1:50, Caltag Laboratories, Burlingame, Calif.), followed by fluorescence-activated cell sorter analysis (FACS) as we previously described (17). To obtain a pure population of CD4+ T lymphocytes, monocytes were removed from PBMCs by using CD14 coupled magnetic beads and subsequently CD4+ T lymphocytes were isolated with CD4 coupled magnetic beads (Stem Cell Technologies, Vancouver, BC, Canada).
HIV-infection and quantification of replication. Cell-free viral inocula were obtained from the National Institutes of Health AIDS Research and Reference Reagent Program. Three isolates were used: HIVADA, and HIVBal, two R5 isolates and HIVLAI, an X4 isolate, PBMCs and purified CD4+ T lymphocytes were isolated and activated with phytohemagglutinin (PHA; 5 μg/ml) plus interleukin (IL-2; 5%) in RPMI 1640 for 48 h in polypropylene tubes at a density of 2×10^6 […] PBMCs and CD4+ T lymphocytes were then infected by incubation for 24 h with viral stocks of HIVADA (20 ng p24/ml/1×10^6 cells), HIVLAI (20 ng p24/ml/1×10^6 cells) or HIVBal (0.001 MOI), washed thoroughly, resuspended in fresh medium, and maintained in polypropylene tubes. Uninfected control cells were activated with PHA plus IL-2 for 48 h, washed, and maintained in polypropylene tubes in fresh media without any virus. To determine the levels of HIV infection, the amount of HIV-p24 released into the medium was determined by ELISA (PerkinElmer, Boston, Mass.)
as §1

[6] = molecular target: T1, Panx1 hemichannels; assay: HIV-induced Etd uptake in CD4+ T lymphocytes by flow cytometry (FACS); type: cell-based; parameters: endogenous in cells; host or cells: primary human PBMCs and purified CD4+ T lymphocytes from leukopacks (New York Blood Center); details: HIVADA, 5 min and 72 h
Protocol: Flow cytometry. To measure Etd uptake in CD4+ T cell populations FACS analysis was performed of cells under control conditions or after HIV exposure at several time points. Etd uptake experiments were performed in CD4+ lymphocytes (3-5×10^5), and after the respective time of Etd uptake, cells were fixed with 2% paraformaldehyde for 30 min at room temperature, incubated with 1% BSA in PBS for 30 min and stained with CD4 antibody for 30 min at 4° C. For analyses of Etd positive populations, 10,000 events were acquired on a BD FACS Canto II and analyzed using FlowJo (Ashland, Oreg.) software as we previously described (17, 20).

[7] = system: HIV; assay: HIV replication in macrophage cultures, strain not named; type: cell-based; details: apyrase data; concentration not given
Protocol: as §2

T1 sequence (Q96RD7 whole entry): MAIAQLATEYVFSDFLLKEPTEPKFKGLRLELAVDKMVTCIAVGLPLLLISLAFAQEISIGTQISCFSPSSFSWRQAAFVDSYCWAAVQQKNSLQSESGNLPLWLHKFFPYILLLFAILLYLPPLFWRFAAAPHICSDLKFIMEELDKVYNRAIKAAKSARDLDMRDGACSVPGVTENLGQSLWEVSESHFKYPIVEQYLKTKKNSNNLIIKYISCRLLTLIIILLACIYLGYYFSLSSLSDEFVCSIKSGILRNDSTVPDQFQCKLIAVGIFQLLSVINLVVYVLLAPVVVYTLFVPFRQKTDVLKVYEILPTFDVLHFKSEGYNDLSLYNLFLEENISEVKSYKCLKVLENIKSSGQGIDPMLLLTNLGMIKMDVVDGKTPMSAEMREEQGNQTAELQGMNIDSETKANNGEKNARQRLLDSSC

## RANTES/CCL5: a physiological ligand for CCR5
[1]; chemokines 100 ng/ml, time course
  Etd uptake after single addition of chemokine or gp120: fast and extremely transient increase (only 5 min)

## Cc1ccc(C(=O)Nc2ccc(S(=O)(=O)O)c3cc(S(=O)(=O)O)cc(S(=O)(=O)O)c23)cc1NC(=O)c1cccc(NC(=O)Nc2cccc(C(=O)Nc3cc(C(=O)Nc4ccc(S(=O)(=O)O)c5cc(S(=O)(=O)O)cc(S(=O)(=O)O)c45)ccc3C)c2)c1 [suramin]
[2]; suramin, every time point tested, N=3 donors
  inhibition of HIVADA replication: 100%
[3]
  cell viability (live/dead assay): None of the antagonist caused any decrease in cell viability; also recorded: without altering cell viability

## CNc1ncnc2c1ncn2[C@H]1C[C@H](OP(=O)([O-])[O-])[C@@H](COP(=O)([O-])[O-])O1.[Na+].[Na+].[Na+].[Na+] [MRS 2179, 2′-deoxy-N6-methyladenosine 3′,5′-bisphosphate tetrasodium salt]
[4]
  reduction in viral entry (percentage of cells with viral entry) relative to HIV only: did not change
[2]; 100 μM, 3 independent donors, NF 279 on days 2-7 post inoculation, read-out: inhibition of HIV p24 production as compared to HIV infected cultures without the inhibitors
  inhibition at 100 µM: 60 to 70%
[3]
  cell viability (live/dead assay): did not alter cell viability; also recorded: None of the antagonist caused any decrease in cell viability

## Cc1ccc(-c2ccc3c(c2)C=C(C(=O)Nc2ccc(C[N+](C)(C)C4CCOCC4)cc2)CCC3)cc1.[Cl-] [TAK-779]
[5]; CD4+ T lymphocytes, HIVADA and HIVBal, TAK-779 100 ng/ml
  Etd uptake induced by R5 viruses: reduced

## COc1ccc(CC(=O)NC(N=C(NC#N)Nc2cccc3ncccc23)C(C)(C)C)cc1OC (stereo not drawn) [A-740003, N-[1-[[(Cyanoamino)(5-quinolinylamino)methylene]amino]-2,2-dimethylpropyl]-3,4-dimethoxybenzeneacetamide]
[4]
  reduction in viral entry (percentage of cells with viral entry) relative to HIV only: did not change
[2]; read-out: inhibition of HIV p24 production relative to HIV plus the vehicle DMSO
  inhibition at 100 µM: 70 to 91%
[3]
  cell viability (live/dead assay): did not alter cell viability; also recorded: None of the antagonist caused any decrease in cell viability

## CCCN(CCC)S(=O)(=O)c1ccc(C(=O)O)cc1 [probenecid]
[1]; 5 min
  gp120-induced Etd uptake, in presence of blockers: inhibited
[5]
  Etd uptake (rate) induced by the virus: completely blocked; also recorded: completely reduced
[6]
  Etd uptake induced by the virus, analyzed by FACS: reduced Etd uptake
[6]; listed as Probenecid
  Etd uptake induced by the virus, analyzed by FACS: reduced to control conditions (100%)

## [La+3] [La^3+, Lanthanum]
[5]
  Etd uptake (rate) induced by the virus: did not cause changes
[5]; listed as Lanthanum
  Etd uptake (rate) induced by the virus: did not affect

## O=C(Nc1ccc(C(=O)Nc2ccc(C(=O)Nc3ccc(S(=O)(=O)[O-])c4cc(S(=O)(=O)[O-])cc(S(=O)(=O)[O-])c34)cc2)cc1)Nc1ccc(C(=O)Nc2ccc(C(=O)Nc3ccc(S(=O)(=O)[O-])c4cc(S(=O)(=O)[O-])cc(S(=O)(=O)[O-])c34)cc2)cc1.[Na+].[Na+].[Na+].[Na+].[Na+].[Na+] [NF 279, 8,8′-[Carbonylbis(imino-4,1-phenylenecarbonylimino-4,1-phenylenecarbonylimino)]bis-1,3,5-naphthalenetrisulfonic acid hexasodium salt]
[4]
  reduction in viral entry (percentage of cells with viral entry) relative to HIV only: 98%
[2]; 100 μM, 3 independent donors, NF 279 on days 2-7 post inoculation
  inhibition of HIV p24 production as compared to HIV infected cultures without the inhibitors: 90-98%
[3]
  cell viability (live/dead assay): did not alter cell viability; also recorded: None of the antagonist caused any decrease in cell viability

## apyrase
[7]
  reduction in HIV replication in macrophages: no reduction
[4]; apyrase data, concentration not given
  reduction in HIV entry in macrophages: no reduction
